Where “and” joins values, the source holds several entries; their conditions need not be identical. Equal entries are not always repeated. In the oligonucleotide strings, read from the 5' end, every base follows the letter of its sugar. An asterisk marks phosphorothioate; unmarked linkages are phosphodiester. Other units and linkages are bracketed, terminal groups are in braces. A string of capitals states the bases alone. e = 2'-O-(2-methoxyethyl) (MOE); [5mC] = 5-methylcytosine; d = 2'-deoxy (DNA)
Legend:
follistatin = test: Follistatin mRNA expression in HepG2 cells; format: cell-based, human
HeLa cells = test: Cell cycle assay in HeLa cells; format: cell-based, human; settings: HeLa cells
[1] = Experiment 1, basal (no insulin), HepG2, 100 nM oligomeric compound
[2] = Experiment 2, 1 nM insulin treated, HepG2, 100 nM oligomeric compound
[3] = 150 nM oligomeric compound, 24 hours, relative to untreated control (UTC = 100)
[4] = 150 nM oligomeric compound, 48 hours after treatment, relative to untreated control (UTC=100)
[5] = 25 nM, 48 hours, percentage of cells in phase, average of replicates
[6] = 50 nM, 48 hours, percentage of cells in phase, average of replicates
[7] = 100 nM, 48 hours, percentage of cells in phase, average of replicates
[8] = 150 nM, 48 hours, relative to untreated control
[9] = 150 nM, 48 hours, percentage of cells in phase, average of replicates

With “327933 (antisense eA*eA*eG*eG*eG*eA*eT*eT*e[5mC]*e[5mC]*eT*eG*eG*eG*eA*eA*eA*eA*e[5mC]*eT*eG*eG*eA*e[5mC]) [compound 327933]” the “Follistatin (% UTC)” value (follistatin; [1]) was 112 % UTC, the “Follistatin (% UTC)” value (follistatin; [2]) was 185 % UTC and the “% cells aneuploid” value (HeLa cells; [3]) was 92% and 47%. The “% cells in cell cycle phase G1” value (HeLa cells; [3]) was 102% and 90%, the “% cells in cell cycle phase G2/M” value (HeLa cells; [3]) was 131% and 140% and the “% cells in cell cycle phase S” value (HeLa cells; [3]) was 83% and 91%. The “% cells in cell cycle phase subG1” value (HeLa cells; [3]) was 192% and 190%, the “% cells in cell cycle phase: G1” value (HeLa cells; [4]) was 76% and 80% and the “% cells in cell cycle phase: G2/M” value (HeLa cells; [4]) was 138% and 123%. The “% cells in cell cycle phase: S” value (HeLa cells; [4]) was 135% and 133% and the “% cells in cell cycle phase: aneuploid” value (HeLa cells; [4]) was 86% and 75%.

“327892 (antisense eA*e[5mC]*eT*eT*eT*e[5mC]*eG*eG*eT*eT*eA*eT*e[5mC]*eT*eA*eG*e[5mC]*eT*eT*eT*eA) [compound 327892]” was tested, and the “Follistatin (% UTC)” value (follistatin; [1]) was 91 % UTC, the “Follistatin (% UTC)” value (follistatin; [2]) was 96 % UTC and the “% cells aneuploid” value (HeLa cells; [3]) was 80%. For the same substance, the “% cells in cell cycle phase G1” value (HeLa cells; [3]) was 86%, the “% cells in cell cycle phase G2/M” value (HeLa cells; [3]) was 103% and the “% cells in cell cycle phase S” value (HeLa cells; [3]) was 111%. For the same substance, the “% cells in cell cycle phase subG1” value (HeLa cells; [3]) was 153%, the “% cells in cell cycle phase: G1” value (HeLa cells; [4]) was 74% and the “% cells in cell cycle phase: G2/M” value (HeLa cells; [4]) was 129%. For the same substance, the “% cells in cell cycle phase: S” value (HeLa cells; [4]) was 150%, the “% cells in cell cycle phase: aneuploid” value (HeLa cells; [4]) was 79% and the “% cells in cell cycle phase: subG1” value (HeLa cells; [4]) was 121%.

“327934 (antisense eG*eG*eT*eA*e[5mC]*eA*eA*eT*e[5mC]*eA*eA*e[5mC]*eG*eG*eT*e[5mC]*eG*eA*eT*eG*eG*eT) [compound 327934]” was tested, and the “Follistatin (% UTC)” value (follistatin; [1]) was 140 % UTC, the “Follistatin (% UTC)” value (follistatin; [2]) was 103 % UTC and the “% cells aneuploid” value (HeLa cells; [3]) was 55% and 77%. The “% cells in cell cycle phase G1” value (HeLa cells; [3]) was 87% and 118%, the “% cells in cell cycle phase G2/M” value (HeLa cells; [3]) was 160% and 137% and the “% cells in cell cycle phase S” value (HeLa cells; [3]) was 85% and 66%. For the same substance, the “% cells in cell cycle phase subG1” value (HeLa cells; [3]) was 278% and 204%, the “% cells in cell cycle phase: G1” value (HeLa cells; [4]) was 62% and 66% and the “% cells in cell cycle phase: G2/M” value (HeLa cells; [4]) was 152% and 155%. For the same substance, the “% cells in cell cycle phase: S” value (HeLa cells; [4]) was 156% and 148% and the “% cells in cell cycle phase: aneuploid” value (HeLa cells; [4]) was 92% and 117%.

In the case of “327889 (antisense eG*eT*eG*eG*eT*eA*eA*eT*e[5mC]*e[5mC]*e[5mC]*eT*eG*eG*e[5mC]*eA*eA*eT*eG*eT*eG*eA*eT) [compound 327889]”, the “Follistatin (% UTC)” value (follistatin; [1]) is reported as 56 % UTC, the “Follistatin (% UTC)” value (follistatin; [2]) is reported as 72 % UTC and the “% cells aneuploid” value (HeLa cells; [3]) is reported as 82%. The “% cells in cell cycle phase G1” value (HeLa cells; [3]) was 104%, the “% cells in cell cycle phase G2/M” value (HeLa cells; [3]) was 87% and the “% cells in cell cycle phase S” value (HeLa cells; [3]) was 102%. For the same substance, the “% cells in cell cycle phase subG1” value (HeLa cells; [3]) was 122%, the “% cells in cell cycle phase: G1” value (HeLa cells; [4]) was 78% and the “% cells in cell cycle phase: G2/M” value (HeLa cells; [4]) was 130%. The “% cells in cell cycle phase: S” value (HeLa cells; [4]) was 137%, the “% cells in cell cycle phase: aneuploid” value (HeLa cells; [4]) was 101% and the “% cells in cell cycle phase: subG1” value (HeLa cells; [4]) was 133%.

For “327876 (antisense eA*eA*e[5mC]*eA*e[5mC]*eT*eG*eA*eT*eT*eT*e[5mC]*eA*eA*eA*eT*eG*eG*eT*eG*e[5mC]*eT*eA) [compound 327876]”, the “Follistatin (% UTC)” value (follistatin; [1]) was 104 % UTC, the “Follistatin (% UTC)” value (follistatin; [2]) was 138 % UTC and the “% cells aneuploid” value (HeLa cells; [3]) was 66% and 75%. For the same substance, the “% cells in cell cycle phase G1” value (HeLa cells; [3]) was 98% and 93%, the “% cells in cell cycle phase G2/M” value (HeLa cells; [3]) was 95% and 131% and the “% cells in cell cycle phase S” value (HeLa cells; [3]) was 104% and 92%. The “% cells in cell cycle phase subG1” value (HeLa cells; [3]) was 103% and 149%, the “% cells in cell cycle phase: G1” value (HeLa cells; [4]) was 87% and 76% and the “% cells in cell cycle phase: G2/M” value (HeLa cells; [4]) was 119% and 126%. For the same substance, the “% cells in cell cycle phase: S” value (HeLa cells; [4]) was 120% and 141% and the “% cells in cell cycle phase: aneuploid” value (HeLa cells; [4]) was 100% and 69%.

For “327905 (antisense e[5mC]*eA*eG*eA*e[5mC]*eT*e[5mC]*e[5mC]*eG*eG*eT*eG*eG*eA*eA*eT*eG*eA*eA*eG*eG*eA) [compound 327905]”, the “Follistatin (% UTC)” value (follistatin; [1]) was 104 % UTC, the “Follistatin (% UTC)” value (follistatin; [2]) was 148 % UTC and the “% cells in cell cycle phase: G2/M” value (HeLa cells; 25 nM, 48 hours) was 18%. The “% cells in cell cycle phase: G1” value (HeLa cells; [5]) was 57%, the “% cells in cell cycle phase: S” value (HeLa cells; [5]) was 24% and the “% cells in cell cycle phase: aneuploid” value (HeLa cells; [5]) was 12%. The “% cells in cell cycle phase: subG1” value (HeLa cells; [5]) was 1.7%, the “% cells in cell cycle phase: G2/M” value (HeLa cells; 50 nM, 48 hours) was 20% and the “% cells in cell cycle phase: G1” value (HeLa cells; [6]) was 50%. The “% cells in cell cycle phase: S” value (HeLa cells; [6]) was 30%, the “% cells in cell cycle phase: aneuploid” value (HeLa cells; [6]) was 12% and the “% cells in cell cycle phase: subG1” value (HeLa cells; [6]) was 2.1%. The “% cells in cell cycle phase: G2/M” value (HeLa cells; 100 nM, 48 hours) was 24%, the “% cells in cell cycle phase: G1” value (HeLa cells; [7]) was 46% and the “% cells in cell cycle phase: S” value (HeLa cells; [7]) was 30%. For the same substance, the “% cells in cell cycle phase: aneuploid” value (HeLa cells; [7]) was 14%, the “% cells in cell cycle phase: subG1” value (HeLa cells; [7]) was 2.5% and the “% cells aneuploid” value (HeLa cells; [3]) was 50% and 98%. For the same substance, the “% cells in cell cycle phase G1” value (HeLa cells; [3]) was 99% and 94%, the “% cells in cell cycle phase G2/M” value (HeLa cells; [3]) was 129% and 121% and the “% cells in cell cycle phase S” value (HeLa cells; [3]) was 88% and 95%. The “% cells in cell cycle phase subG1” value (HeLa cells; [3]) was 144% and 149%, the “% cells in cell cycle phase: G1” value (HeLa cells; [4]) was 48% and 78% and the “% cells in cell cycle phase: G2/M” value (HeLa cells; [4]) was 150% and 122%. For the same substance, the “% cells in cell cycle phase: S” value (HeLa cells; [4]) was 194% and 143%, the “% cells in cell cycle phase: aneuploid” value (HeLa cells; [4]) was 67% and 99% and the “% cells in cell cycle phase: G2/M” value (HeLa cells; 150 nM, 48 hours) was 24%. The “% cells in cell cycle phase G1” value (HeLa cells; [8]) was 108%, the “% cells in cell cycle phase G2/M” value (HeLa cells; [8]) was 90% and the “% cells in cell cycle phase S” value (HeLa cells; [8]) was 99%. For the same substance, the “% cells in cell cycle phase aneuploid” value (HeLa cells; [8]) was 164%, the “% cells in cell cycle phase subG1” value (HeLa cells; [8]) was 55% and the “% cells in cell cycle phase: G1” value (HeLa cells; [9]) was 38%. The “% cells in cell cycle phase: S” value (HeLa cells; [9]) was 38%, the “% cells in cell cycle phase: aneuploid” value (HeLa cells; [9]) was 12% and the “% cells in cell cycle phase: subG1” value (HeLa cells; [9]) was 4.5%.

With “328759 (antisense eG*eA*eG*eG*eG*dA*dT*dT*dG*dT*dA*dT*dG*dA*dA*e[5mC]*eA*eT*e[5mC]*eT) [compound 328759]” the “Follistatin (% UTC)” value (follistatin; Experiment 3, basal (no insulin), HepG2 cells, 48 hours post-transfection) was 266 % UTC, the “Follistatin (% UTC)” value (follistatin; Experiment 4, insulin-sensitization: HepG2 cells treated with 1 nM insulin for four hours, 48 h post-transfection, mRNA by real-time PCR) was 224 % UTC and the “% cells aneuploid” value (HeLa cells; [3]) was 184%. The “% cells in cell cycle phase G1” value (HeLa cells; [3]) was 88%, the “% cells in cell cycle phase G2/M” value (HeLa cells; [3]) was 168% and the “% cells in cell cycle phase S” value (HeLa cells; [3]) was 78%. For the same substance, the “% cells in cell cycle phase subG1” value (HeLa cells; [3]) was 239%, the “% cells in cell cycle phase: G1” value (HeLa cells; [4]) was 50% and the “% cells in cell cycle phase: G2/M” value (HeLa cells; [4]) was 343%. For the same substance, the “% cells in cell cycle phase: S” value (HeLa cells; [4]) was 31%, the “% cells in cell cycle phase: aneuploid” value (HeLa cells; [4]) was 148% and the “% cells in cell cycle phase: subG1” value (HeLa cells; [4]) was 1744%. The “% cells in cell cycle phase G1” value (HeLa cells; [8]) was 40%, the “% cells in cell cycle phase G2/M” value (HeLa cells; [8]) was 203% and the “% cells in cell cycle phase S” value (HeLa cells; [8]) was 82%. The “% cells in cell cycle phase aneuploid” value (HeLa cells; [8]) was 223% and the “% cells in cell cycle phase subG1” value (HeLa cells; [8]) was 797%.

With “327919 (antisense eG*eA*eA*eA*e[5mC]*e[5mC]*e[5mC]*eA*eG*e[5mC]*eA*eG*eA*e[5mC]*eA*eA*eT*eG*eT*eA*eG*e[5mC]*eT) [compound 327919]” the “Follistatin (% UTC)” value (follistatin; [1]) was 74 % UTC, the “Follistatin (% UTC)” value (follistatin; [2]) was 178 % UTC and the “% cells aneuploid” value (HeLa cells; [3]) was 96%. For the same substance, the “% cells in cell cycle phase G1” value (HeLa cells; [3]) was 92%, the “% cells in cell cycle phase G2/M” value (HeLa cells; [3]) was 109% and the “% cells in cell cycle phase S” value (HeLa cells; [3]) was 103%. For the same substance, the “% cells in cell cycle phase subG1” value (HeLa cells; [3]) was 85%, the “% cells in cell cycle phase: G1” value (HeLa cells; [4]) was 80% and the “% cells in cell cycle phase: G2/M” value (HeLa cells; [4]) was 139%. For the same substance, the “% cells in cell cycle phase: S” value (HeLa cells; [4]) was 122%, the “% cells in cell cycle phase: aneuploid” value (HeLa cells; [4]) was 104% and the “% cells in cell cycle phase: subG1” value (HeLa cells; [4]) was 104%.

— patent publication US8178506B2, “Oligomeric compounds and compositions for use in modulation of small non-coding RNAs” (Regulus Therapeutics Inc., priority 2003, dated 2012)
